Assay in all cases: two-electrode voltage clamp, Xenopus oocytes
Format in all cases: cell-based
For orientation: In two-electrode clamp one electrode senses voltage and the other passes current.

Experiment [1] has as its target T1, HdP2X (Hypsibius dujardini, UniProt B8RGS2).
T1 construct: full-length, 480 residues, cDNA clone in pSPORT1; cRNA in Xenopus oocytes; P2X receptors are trimers
T1 sequence (B8RGS2 1-480): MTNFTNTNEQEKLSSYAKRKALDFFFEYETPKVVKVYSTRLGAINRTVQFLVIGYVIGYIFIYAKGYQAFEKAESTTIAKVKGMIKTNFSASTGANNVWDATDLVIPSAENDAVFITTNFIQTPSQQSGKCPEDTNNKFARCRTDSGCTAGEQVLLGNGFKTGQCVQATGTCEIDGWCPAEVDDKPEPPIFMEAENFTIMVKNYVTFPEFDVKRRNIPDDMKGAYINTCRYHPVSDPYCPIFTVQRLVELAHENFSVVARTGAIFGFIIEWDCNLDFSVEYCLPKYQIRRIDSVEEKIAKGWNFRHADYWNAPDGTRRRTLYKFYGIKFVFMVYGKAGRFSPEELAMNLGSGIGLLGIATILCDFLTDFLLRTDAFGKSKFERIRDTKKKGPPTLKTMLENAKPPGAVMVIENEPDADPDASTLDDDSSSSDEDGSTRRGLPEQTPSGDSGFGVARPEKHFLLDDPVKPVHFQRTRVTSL

Experiment [2] has as its target T1, HdP2X. This is another data set of the same source.
The target of experiment [3] is T1, HdP2X. The conditions noted are these: agonist; -60 mV; ND96 with Ba2+ for Ca2+, pH 7.5.

SMILES strings stand for the structures.

As usually defined, the EC50 is the concentration giving half of the maximal effect. Lower therefore signals a more potent agent. Regarding `Nc1ncnc2c1ncn2[C@@H]1O[C@H](COP(=O)(O)OP(=O)(O)OP(=O)(O)O)[C@@H](O)[C@H]1O` [ATP], the EC50 at HdP2X [1] is 44.5 µM. For `Nc1ncnc2c1ncn2[C@@H]1O[C@H](COP(=O)(O)OP(=O)(O)OP(=O)(O)O)[C@@H](OC(=O)c2ccc(C(=O)c3ccccc3)cc2)[C@H]1O` [Bz-ATP, 2',3'-O-4-Benzoylbenzoyl ATP], the EC50 on HdP2X [1] was found to be 12.2 µM. By IC50 is commonly meant the concentration that inhibits the measured activity by half. Read a low IC50 as higher potency. With `Cc1nc(N=Nc2ccc(S(=O)(=O)O)cc2S(=O)(=O)O)c(COP(=O)(O)O)c(C=O)c1O` [PPADS, pyridoxal-phosphate-6-azophenyl-2',4'-disulfonic acid], at HdP2X [2], 15 µM corresponded to half-maximal inhibition (IC50).

With `Cc1ccc(C(=O)Nc2ccc(S(=O)(=O)O)c3cc(S(=O)(=O)O)cc(S(=O)(=O)O)c23)cc1NC(=O)c1cccc(NC(=O)Nc2cccc(C(=O)Nc3cc(C(=O)Nc4ccc(S(=O)(=O)O)c5cc(S(=O)(=O)O)cc(S(=O)(=O)O)c45)ccc3C)c2)c1` [suramin], at HdP2X [2], inhibition was half-maximal at 22.6 µM (IC50). With `Nc1ncnc2c1ncn2[C@@H]1O[C@H](COP(=O)(O)CP(=O)(O)OP(=O)(O)O)[C@@H](O)[C@H]1O` [αβ-methylene ATP, α,β-methylene-adenosine 5'-triphosphate], the “% of 100 μM ATP response at 100 μM” value on HdP2X [3] was less than 50%.
